Patent US20050203117A1, “Treating allergic and inflammatory conditions” (priority 2002, published 2005)

Assay: in vivo studies of allergic bronchospasm and cough

**Q.** With `Clc1ccc2c(c1)CCc1cccnc1C2=C1CCNCC1` [desloratadine] as the molecule, how does the “effect on allergic bronchospasm and cough” value read?
**A.** inhibitory effect
